# In US10968225B2, “Compounds and compositions for the treatment of cystic fibrosis” (Fondazione Istituto Italiano Di Tecnologia, priority 2017, dated 2021):
# Counter-ions that a name gives are not always drawn.
# Molecular target: T1, mutant CFTR (Homo sapiens, UniProt P13569, DEL508-508)
# T1 construct: expressed in transfected cells
# Assay: Fluorescence (HS-YFP) assay for CFTR activity, corrector assay
# Format: cell-based
# Settings: CFBE41o- and FRT cells with stable expression of mutant CFTR, read-out: activity (EC50)
# T1 sequence (P13569 with tags, fused parts or gaps DEL508-508): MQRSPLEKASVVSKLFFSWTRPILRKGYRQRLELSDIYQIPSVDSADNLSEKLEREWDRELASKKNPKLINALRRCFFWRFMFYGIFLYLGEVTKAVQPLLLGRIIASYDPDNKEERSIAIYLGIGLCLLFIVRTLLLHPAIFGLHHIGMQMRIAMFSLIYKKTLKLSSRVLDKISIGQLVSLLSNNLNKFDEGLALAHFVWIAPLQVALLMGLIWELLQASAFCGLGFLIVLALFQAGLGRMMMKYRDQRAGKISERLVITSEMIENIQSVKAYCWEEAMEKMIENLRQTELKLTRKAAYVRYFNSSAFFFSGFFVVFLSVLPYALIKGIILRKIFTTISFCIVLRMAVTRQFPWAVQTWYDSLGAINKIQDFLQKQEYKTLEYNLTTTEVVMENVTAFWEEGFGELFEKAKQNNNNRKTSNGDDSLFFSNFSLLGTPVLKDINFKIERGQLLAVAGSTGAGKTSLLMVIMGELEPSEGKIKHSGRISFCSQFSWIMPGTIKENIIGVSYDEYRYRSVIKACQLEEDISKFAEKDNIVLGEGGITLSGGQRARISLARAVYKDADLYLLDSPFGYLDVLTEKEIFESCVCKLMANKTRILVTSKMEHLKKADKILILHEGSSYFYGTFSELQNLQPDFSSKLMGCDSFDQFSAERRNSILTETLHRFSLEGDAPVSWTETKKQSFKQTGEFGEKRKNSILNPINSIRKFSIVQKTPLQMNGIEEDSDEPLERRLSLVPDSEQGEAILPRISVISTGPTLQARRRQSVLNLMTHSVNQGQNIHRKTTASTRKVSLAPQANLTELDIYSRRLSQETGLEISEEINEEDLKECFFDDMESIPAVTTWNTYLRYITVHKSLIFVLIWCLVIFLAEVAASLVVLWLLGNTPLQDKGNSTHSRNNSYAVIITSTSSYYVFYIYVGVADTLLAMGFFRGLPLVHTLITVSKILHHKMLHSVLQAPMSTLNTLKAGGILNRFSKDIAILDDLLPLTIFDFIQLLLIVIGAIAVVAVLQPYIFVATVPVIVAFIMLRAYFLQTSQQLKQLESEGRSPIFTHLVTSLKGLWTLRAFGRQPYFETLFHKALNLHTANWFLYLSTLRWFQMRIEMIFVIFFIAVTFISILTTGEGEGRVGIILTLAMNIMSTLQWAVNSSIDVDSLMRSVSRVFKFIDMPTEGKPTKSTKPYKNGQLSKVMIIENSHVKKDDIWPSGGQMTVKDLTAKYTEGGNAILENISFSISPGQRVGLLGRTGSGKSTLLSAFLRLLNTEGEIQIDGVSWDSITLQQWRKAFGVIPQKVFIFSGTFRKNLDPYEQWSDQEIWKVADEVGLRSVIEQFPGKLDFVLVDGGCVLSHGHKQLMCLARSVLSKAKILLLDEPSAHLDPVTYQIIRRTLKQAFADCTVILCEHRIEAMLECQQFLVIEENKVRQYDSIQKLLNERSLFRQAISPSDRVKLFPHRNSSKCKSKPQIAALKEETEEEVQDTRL
row,SMILES,EC50 [nM]
1,"CN1CCOc2c(c(C(F)(F)F)nn2-c2cccc(C(=O)N(C)c3ccc4c(c3)OCO4)c2)C1 [Compound 017, N-(1,3-Benzodioxol-5-yl)-N-methyl-3-[5-methyl-3-(trifluoromethyl)-6,7-dihydro-4H-pyrazolo[4,3-f][1,4]oxazepin-1-yl]benzamide]",< 1000
2,"CN(C(=O)c1cccc(-n2nc(C(F)(F)F)c3c2CCN(C(=O)C(C)(C)c2ccccc2)C3)c1)c1ccc2c(c1)OCO2 [Compound 035, N-(1,3-Benzodioxol-5-yl)-N-methyl-3-[5-(2-methyl-2-phenyl-propanoyl)-3-(trifluoromethyl)-6,7-dihydro-4H-pyrazolo[4,3-c]pyridin-1-yl]benzamide]",< 1000
3,"Cc1cc2ncc(N(C)C(=O)c3cccc(-n4nc(C(F)(F)F)c5c4[C@@H](Oc4ccc(C(=O)O)cc4)CCC5)c3)cn2n1 (single isomer, unassigned) [Compound 218, (R) or (S)-4-[[1-[3-[Methyl-(2-methylpyrazolo[1,5-a]pyrimidin-6-yl)carbamoyl]phenyl]-3-(trifluoromethyl)-4,5,6,7-tetrahydroindazol-7-yl]oxy]benzoic acid]",1000 to 2000
4,"Cc1n[nH]c(C)c1S(=O)(=O)N1CCc2c(c(C(F)(F)F)nn2-c2cccc(C(=O)N(C)c3ccc4c(c3)OCO4)c2)C1 [Compound 069, N-(1,3-Benzodioxol-5-yl)-3-[5-[(3,5-dimethyl-4H-pyrazol-4-yl)sulfonyl]-3-(trifluoromethyl)-6,7-dihydro-4H-pyrazolo[4,3-c]pyridin-1-yl]-N-methyl-benzamide]",< 1000
5,"Cc1nc2ncc(N(C)C(=O)c3cccc(-n4nc(C(F)(F)F)c5c4C(Oc4ccc(C(=O)O)cc4)CCC5)c3)cc2o1 (single isomer, unassigned) [Compound 286, (R) or (S)-4-[[1-[3-[Methyl-(2-methyloxazolo[4,5-b]pyridin-6-yl)carbamoyl]phenyl]-3-(trifluoromethyl)-4,5,6,7-tetrahydroindazol-7-yl]oxy]benzoic acid]",1000 to 2000
6,"CN(c1ccc2c(c1)OCO2)S(=O)(=O)c1cccc(-n2nc(C(F)(F)F)c3c2CCNC3)c1 [Compound 066, N-(1,3-Benzodioxol-5-yl)-N-methyl-3-[3-(trifluoromethyl)-4,5,6,7-tetrahydropyrazolo[4,3-c]pyridin-1-yl] benzenesulfonamide hydrochloride]",< 1000
7,"COc1cc(N(C)C(=O)c2cccc(-n3nc(C(F)(F)F)c4c3C(Oc3ccc(C(=O)O)cc3)CCC4)c2)ccn1 (racemic) [Compound 316, 4-[[1-[3-[(2-methoxy-4-pyridyl)-methyl-carbamoyl]phenyl]-3-(trifluoromethyl)-4,5,6,7-tetrahydroindazol-7-yl]oxy]benzoic acid]",1000 to 2000
8,"CN(C(=O)c1cccc(-n2nc(C(F)(F)F)c3c2C(Oc2ccc(C(=O)O)nc2)CCC3)c1)c1ccc2c(c1)OC(F)(F)O2 (stereo not shown) [Compound 164, 5-[[1-[3-[(2,2-Difluoro-1,3-benzodioxol-5-yl)-methyl-carbamoyl]phenyl]-3-(trifluoromethyl)-4,5,6,7-tetrahydroindazol-7-yl]oxy]pyridine-2-carboxylic acid]",< 1000
9,"CN(C(=O)c1cccc(-n2nc(C(F)(F)F)c3c2C(Oc2cccc(C(=O)O)c2)CCC3)c1)c1ccc2c(c1)OC(F)(F)O2 (single isomer, unassigned) [Compound 190, (R) or (S)-3-[[1-[3-[(2,2-Difluoro-1,3-benzodioxol-5-yl)-methyl-carbamoyl]phenyl]-3-(trifluoromethyl)-4,5,6,7-tetrahydroindazol-7-yl]oxy]benzoic acid]",< 1000
10,"Cc1nc2ccc(N(C)C(=O)c3cccc(-n4nc(C(F)(F)F)c5c4C(Oc4ccc(C(=O)O)cc4)CCC5)c3)cn2n1 (stereo not shown) [Compound 172, 4-[[1-[3-[Methyl-(2-methyl-[1,2,4]triazolo[1,5-a]pyridin-6-yl)carbamoyl]phenyl]-3-(trifluoromethyl)-4,5,6,7-tetrahydroindazol-7-yl]oxy]benzoic acid]",< 1000
11,"COc1ncc(NC(=O)c2cccc(-n3nc(C(F)(F)F)c4c3CCN(C(=O)C(C)(C)C)C4)c2)cn1 [Compound 081, 3-[5-(2,2-Dimethylpropanoyl)-3-(trifluoromethyl)-6,7-dihydro-4H-pyrazolo[4,3-c]pyridin-1-yl]-N-(2-methoxypyrimidin-5-yl)benzamide]",> 2000
12,"COC(=O)N1CCc2c(c(C(F)(F)F)nn2-c2cccc(C(=O)N(C)c3ccc4c(c3)OCO4)c2)C1 [Compound 009, Methyl 1-[3-[1,3-benzodioxol-5-yl(methyl)carbamoyl]phenyl]-3-(trifluoromethyl)-6,7-dihydro-4H-pyrazolo[4,3-c] pyridine-5-carboxylate]",< 1000
13,"COc1cc(N(C)C(=O)c2cccc(-n3nc(C(F)(F)F)c4c3CCN(C(=O)C(C)(C)C)C4)c2)ccn1 [Compound 090, 3-[5-(2,2-Dimethylpropanoyl)-3-(trifluoromethyl)-6,7-dihydro-4H-pyrazolo[4,3-c]pyridin-1-yl]-N-(2-methoxy-4-pyridyl)-N-methyl-benzamide]",< 1000
14,"CN(C(=O)c1cccc(-n2nc(C(F)(F)F)c3c2C(Oc2ccc(C(=O)O)cc2)CCC3)c1)c1cnc2c(c1)OCC2 (single isomer, unassigned) [Compound 276, (R) or (S)-4-[[1-[3-[2,3-Dihydrofuro[3,2-b]pyridin-6-yl(methyl)carbamoyl]phenyl]-3-(trifluoromethyl)-4,5,6,7-tetrahydroindazol-7-yl]oxy]benzoic acid]",1000 to 2000
15,"CC(C)C(=O)N1CCc2c(c(C(F)(F)F)nn2-c2cccc(C(=O)N(C)c3ccc4c(c3)OCO4)c2)C1 [Compound 031, N-(1,3-Benzodioxol-5-yl)-N-methyl-3-[5-(2-methylpropanoyl)-3-(trifluoromethyl)-6,7-dihydro-4H-pyrazolo[4,3-c]pyridin-1-yl]benzamide]",< 1000
16,"CN(C(=O)c1cccc(-n2nc(C(F)(F)F)c3c2C(Oc2ccc(C(=O)O)nc2)CCC3)c1)c1ccc2c(c1)OC(F)(F)O2 (single isomer, unassigned) [Compound 185, (S) or (R)-5-[[-1-[3-[(2,2-Difluoro-1,3-benzodioxol-5-yl)-methyl-carbamoyl]phenyl]-3-(trifluoromethyl)-4,5,6,7-tetrahydroindazol-7-yl]oxy]pyridine-2-carboxylic acid]",< 1000
17,"Cc1n[nH]c2ncc(NC(=O)c3cccc(-n4nc(C(F)(F)F)c5c4CCN(C(=O)C(C)(C)C)C5)c3)cc12 [Compound 079, 3-[5-(2,2-Dimethylpropanoyl)-3-(trifluoromethyl)-6,7-dihydro-4Hpyrazolo[4,3-c]pyridin-1-yl]-N-(3-methyl-1H-pyrazolo[3,4-b]pyridin-5-yl)benzamide]",> 2000
18,"Cc1nc2ccc(N(C)C(=O)c3cccc(-n4nc(C(F)(F)F)c5c4CCN(C(=O)OC(C)(C)C)C5)c3)cc2o1 [Compound 039, tert-Butyl 1-[3-[methyl-(2-methyl-1,3-benzoxazol-6-yl)carbamoyl]phenyl]-3-(trifluoromethyl)-6,7-dihydro-4H-pyrazolo[4,3-c]pyridine-5-carboxylate]",< 1000
19,"CN(C(=O)c1cccc(-n2nc(C(F)(F)F)c3c2CCN(C[C@H]2COC(C)(C)O2)C3)c1)c1ccc2c(c1)OCO2 [Compound 014, N-(1,3-Benzodioxol-5-yl)-3-[5-[[(4S)-2,2-dimethyl-1,3-dioxolan-4-yl]methyl]-3-(trifluoromethyl)-6,7-dihydro-4H-pyrazolo[4,3-c]pyridin-1-yl]-N-methyl-benzamide]",< 1000
20,"Cc1noc(C)c1S(=O)(=O)N1[C@H]2CC[C@@H]1c1c(C(F)(F)F)nn(-c3cccc(C(=O)N(C)c4ccc5c(c4)OCO5)c3)c1C2 (single isomer, unassigned) [Compound 129, (4R,7S)- or (4S,7R)—N-(Benzo[d][1,3]dioxol-5-yl)-3-(9-((3,5-dimethylisoxazol-4-yl)sulfonyl)-3-(trifluoromethyl)-5,6,7,8-tetrahydro-4,7-epiminocyclohepta[c]pyrazol-1(4H)-yl)-N-methylbenzamide]",< 1000
21,"CN(C(=O)c1cccc(-n2nc(C(F)(F)F)c3c2CCN(CC2CC2)C3)c1)c1ccc2c(c1)OCO2 [Compound 019, N-(1,3-Benzodioxol-5-yl)-3-[5-(cyclopropylmethyl)-3-(trifluoromethyl)-6,7-dihydro-4H-pyrazolo[4,3-c]pyridin-1-yl]-N-methyl-benzamide]",< 1000
22,"CN(C(=O)c1cccc(-n2nc(C(F)(F)F)c3c2C(Oc2ccc(C(=O)O)cc2)COC3)c1)c1ccc2c(c1)OCC2 (single isomer, unassigned) [Compound 282, (R) or (S)-4-[[1-[3-[2,3-dihydrobenzofuran-6-yl(methyl)carbamoyl]phenyl]-3-(trifluoromethyl)-6,7-dihydro-4H-pyrano[4,3-c]pyrazol-7-yl]oxy]benzoic acid]",< 1000
23,"COc1cncc(N(C)C(=O)c2cccc(-n3nc(C(F)(F)F)c4c3C(Oc3ccc(C(=O)O)cc3)CCC4)c2)c1 (stereo not shown) [Compound 166, 4-[[1-[3-[(5-Methoxy-3-pyridyl)-methyl-carbamoyl]phenyl]-3-(trifluoromethyl)-4,5,6,7-tetrahydroindazol-7-yl]oxy]benzoic acid]",< 1000
24,"CN(C(=O)c1cccc(-n2nc(C(F)(F)F)c3c2CCN(C[C@@H](O)CO)C3)c1)c1ccc2c(c1)OCO2 [Compound 015, N-(1,3-Benzodioxol-5-yl)-3-[5-[(2R)-2,3-dihydroxypropyl]-3-(trifluoromethyl)-6,7-dihydro-4H-pyrazolo[4,3-c]pyridin-1-yl]-N-methyl-benzamide]",< 1000
25,"CN(C(=O)c1cccc(-n2nc(C(F)(F)F)c3c2C(Oc2ccc(C(=O)O)cn2)COC3)c1)c1ccc2c(c1)OC(F)(F)O2 (single isomer, unassigned) [Compound 277, (S) or (R)-6-[[1-[3-[(2,2-difluoro-1,3-benzodioxol-5-yl)-methyl-carbamoyl]phenyl]-3-(trifluoromethyl)-6,7-dihydro-4H-pyrano[4,3-c]pyrazol-7-yl]oxy]pyridine-3-carboxylic acid]",< 1000
